Results: BigSolDB 2.1

O=c1c2ccccc2nc2n1CCc1c-2[nH]c2ccccc12
solubility (mole fraction)
Details | 283.2 K | 288.2 K | 293.2 K | 298.2 K | 303.2 K | 313.2 K | 323.2 K
in acetone | 0.000735 | – | 0.000972 | – | 0.00129 | 0.00149 | 0.00196
in chloroform | 0.000287 | – | 0.000511 | – | 0.000922 | 0.00211 | 0.00485
in cyclohexane | 6.24e-06 | – | 1.14e-05 | – | 1.73e-05 | 2.52e-05 | 3.78e-05
in dichloromethane | 0.00142 | 0.00162 | 0.00182 | 0.00196 | 0.00224 | – | –
in diethyl ether | 0.00024 | 0.000273 | 0.000313 | 0.000396 | 0.000454 | – | –
in ethanol | 9.75e-05 | – | 0.000143 | – | 0.000203 | 0.000279 | 0.000394
in ethyl acetate | 0.00104 | – | 0.00123 | – | 0.00153 | 0.00195 | 0.00255
in isopropanol | 7.94e-05 | – | 0.000127 | – | 0.000192 | 0.000292 | 0.000459
in methanol | 6.61e-05 | – | 8.18e-05 | – | 0.000117 | 0.000161 | 0.000229
in n-butanol | 0.000186 | – | 0.000266 | – | 0.000369 | 0.000577 | 0.000955
in n-hexane | 6.17e-06 | – | 1.21e-05 | – | 1.62e-05 | 2.63e-05 | 3.97e-05
in n-pentane | 4.31e-06 | 6.89e-06 | 9.67e-06 | 1.53e-05 | 2.47e-05 | – | –
